Entries after “also recorded” stand apart in the source; their conditions may differ.
What was measured:
[1] = tested on: DTH reaction mounted against OXA (pinna thickness); test: Skin DTH response to OXA challenge, hormones given at sensitization (immunization) phase; type: in vivo, rat; settings: hormone ip 2 h before sensitization with 1.5% OXA: epinephrine 0.5 mg/kg, corticosterone 5 mg/kg, or both; OXA ear challenge six days after immunization
Protocol: (§1) Young adult, male Sprague Dawley rats (150-300 g) (Harlan Sprague Dawley, Indianapolis, Ind.) were housed in plastic cages in the accredited (American Association of Accreditation of Laboratory Animal Care) animal facilities of The Rockefeller University (New York, N.Y.). The animal room was maintained on a 12 h light-dark cycle (lights on 7 am). Animals were given rat chow and water ad libitum.
This was necessary for restoring important permissive functions of corticosterone which are lost following ADX (18-20). […] Unlike constant replacement (via pellets or osmotic pumps), drinking water corticosterone also facilitates the normal termination of a stress-induced ACTH response (22, 23), and simulates the circadian corticosterone rhythm as animals drink at the beginning of the active period (16).
No anesthesia was used subsequently. An area of approximately 3×4 cm was shaved on the dorsum. The thickness of both pinnae was recorded using a constant-loading dial micrometer (Mitutoyo, Japan).
On day 5, baseline pinna thickness was measured. […] Left pinnae were treated with vehicle.
The immune reaction induced using the above procedure, is characterized by swelling at the site of challenge, and by an infiltration of monocytes/macrophages and lymphocytes into the epidermis and dermis (29-31). […]

[2] = tested on: skin DTH, DNFB challenge (pinna thickness); test: Skin DTH response, hormones given before DNFB challenge of previously sensitized animals; type: in vivo, rat
Protocol: as §1
(§2) Bilateral adrenalectomy (ADX) was performed using standard aseptic surgical techniques on animals fully anesthetized with the inhalant, methoxyflurane (Metofane; Pitman-Moore, Washington Crossing, N.J.). Sham adrenalectomized (SHAM) animals went through exactly the same procedure as ADX animals except that their adrenals were not removed. ADX animals were maintained on a low normalizing dose of corticosterone (20 μg/ml) administered through drinking choice of water or 3% saline. This was necessary for restoring important permissive functions of corticosterone which are lost following ADX (18-20). […] Unlike constant replacement (via pellets or osmotic pumps), drinking water corticosterone also facilitates the normal termination of a stress-induced ACTH response (22, 23), and simulates the circadian corticosterone rhythm as animals drink at the beginning of the active period (16).
The concentration and timing of each hormone administered is listed in the text and 3 0 figures. […] Epinephrine (Research Biochemicals International) was dissolved in sterile water.
DTH was induced by challenging the pinnae of previously sensitized rats with 2,4-dinitro-1-fluorobenzene (DNFB, Sigma, St. Louis, Mo.) or oxazalone (OXA, Sigma, St. Louis, Mo). On day 1 of sensitization, animals were anesthetized with the inhalant, methoxyflurane (Metofane; Pitman-Moore, Washington Crossing, N.J.). No anesthesia was used subsequently. An area of approximately 3×4 cm was shaved on the dorsum. The thickness of both pinnae was recorded using a constant-loading dial micrometer (Mitutoyo, Japan). On days 1 and 2 of sensitization, one hundred microliters of DNFB (1% (w/v) in 4:1, acetone:olive oil) or one hundred microliters of OXA (1.5% (w/v) in ethanol) were applied to the shaved dorsum. On day 5, baseline pinna thickness was measured. On day 6, after stress or hormone administration, the dorsal surface of the right pinnae of all animals was challenged with 50 μl of DNFB (0.5% in 4:1 acetone:olive oil) or OXA (0.75% in ethanol). Left pinnae were treated with vehicle. Pinna thickness was measured at the times shown. Measurements were made (on same relative region of pinna) gently and rapidly to avoid displacing or compressing edema fluid and changing pinna thickness.
The immune reaction induced using the above procedure, is characterized by swelling at the site of challenge, and by an infiltration of monocytes/macrophages and lymphocytes into the epidermis and dermis (29-31). A positive correlation between the intensity of the immune reaction and the increase in pinna thickness has been reported (32, 33). This model for skin DTH reactions has been widely used to monitor cell-mediated immune responses in vivo (30, 34).
For all experiments, repeated measures were made on each animal. Significant differences between timepoints within a specific leukocyte subpopulation were analyzed using the Student's t-test as a test for significant differences between means. […] Data are expressed as mean ±SEM in all figures. A computer statistics package was used for statistical analyses (SYSTAT v5.2.1, Systat Inc., Evanston, Ill.).

[3] = tested on: skin DTH, OXA challenge (pinna thickness); test: Skin DTH response, hormones given before OXA challenge of previously sensitized ADX animals; type: in vivo, rat; settings: for skin DTH vs vehicle: epinephrine 0.5 mg/kg, corticosterone 5 mg/kg, or both, OXA (0.75%) challenge 2 h after hormone administration
Protocol: as §1, §2
The concentration and timing of each hormone administered is listed in the text and 3 0 figures. […]
DTH was induced by challenging the pinnae of previously sensitized rats with 2,4-dinitro-1-fluorobenzene (DNFB, Sigma, St. Louis, Mo.) or oxazalone (OXA, Sigma, St. Louis, Mo). […] The thickness of both pinnae was recorded using a constant-loading dial micrometer (Mitutoyo, Japan). […] On day 5, baseline pinna thickness was measured. […] Pinna thickness was measured at the times shown. […]
For all experiments, repeated measures were made on each animal. Significant differences between timepoints within a specific leukocyte subpopulation were analyzed using the Student's t-test as a test for significant differences between means. […] Data are expressed as mean ±SEM in all figures. […]

[4] = tested on: lymphocytes in cervical lymph nodes; test: Cellularity of cervical lymph nodes draining the site of the skin DTH reaction; type: in vivo, rat; settings: ADX animals, epinephrine 0.5 mg/kg, corticosterone 5 mg/kg, or both, OXA challenge 2 h after administration, 48 h after antigen exposure
Protocol: Animals were rapidly sacrificed and cervical lymph nodes were dissected and placed in sterile PBS on ice (n=3 per treatment group). Each lymph node was subsequently weighed and disrupted between the frosted ends of two microscope slides. Suspensions of leukocytes were prepared in PBS and stored on ice for cell counting, immunofluorescent staining, and flow cytometry. White blood cell counts and lymphocyte-neutrophil differentials were obtained on a hematology analyzer (F800, Sysmex, McGraw Park, Ill.). Specific leukocyte subtypes were measured by immunofluorescent antibody staining and subsequent analysis using three color flow cytometry (FACScan, Becton Dickinson, San Jose, Calif.). T cells were identified using the following monoclonal antibodies (Caltag, Burlingame, Calif.): CD3-FITC (1F4), CD4-PE (w3/25), CD8-TC (OX8). Briefly, cell suspensions were incubated with antibody for 20 min at room temperature, washed with PBS, and read on the FACScan with 3,000 to 5,000 events being acquired from each preparation. Appropriate isotype controls were used to set the negative criteria. Data were analyzed using Cell Quest software (Becton Dickinson, San Jose, Calif.). For all experiments, repeated measures were made on each animal. Significant differences between timepoints within a specific leukocyte subpopulation were analyzed using the Student's t-test as a test for significant differences between means. […] Data are expressed as mean ±SEM in all figures. A computer statistics package was used for statistical analyses (SYSTAT v5.2.1, Systat Inc., Evanston, Ill.).

[5] = target: T1, corticosteroid binding globulin (Homo sapiens, UniProt P08185); settings: plasma protein; cited from earlier work
T1 sequence (P08185 23-405): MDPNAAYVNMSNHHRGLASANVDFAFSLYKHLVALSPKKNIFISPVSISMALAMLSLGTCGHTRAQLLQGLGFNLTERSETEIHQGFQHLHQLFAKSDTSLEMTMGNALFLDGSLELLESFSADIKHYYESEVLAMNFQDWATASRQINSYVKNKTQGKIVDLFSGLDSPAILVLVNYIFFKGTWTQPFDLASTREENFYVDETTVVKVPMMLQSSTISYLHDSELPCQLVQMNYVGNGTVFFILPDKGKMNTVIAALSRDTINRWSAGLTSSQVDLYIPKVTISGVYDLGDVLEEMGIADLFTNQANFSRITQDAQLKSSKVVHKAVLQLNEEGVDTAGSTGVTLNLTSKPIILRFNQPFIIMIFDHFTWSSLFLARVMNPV

| SMILES | DTH response (immune reaction at challenge or recall phase) vs vehicle [1] | skin DTH vs vehicle ([2]; corticosterone 400 μg/ml in drinking water, chronic (6 days), DNFB challenge) | skin DTH vs vehicle ([2]; corticosterone 400 μg/ml in drinking water, chronic (6 days), DNFB challenge, listed as Corticosterone) | skin DTH vs vehicle ([2]; corticosterone 5 mg/kg ip, acute, ADX animals, DNFB challenge two hours after administration) | skin DTH vs vehicle ([2]; corticosterone 5 mg/kg ip, acute, ADX animals, DNFB challenge two hours after administration, listed as Corticosterone) | skin DTH vs vehicle ([2]; corticosterone 100 or 400 μg/ml in drinking water for four hours (acute), adrenal-intact animals, DNFB challenge) | skin DTH vs vehicle ([2]; corticosterone 100 or 400 μg/ml in drinking water for four hours (acute), adrenal-intact animals, DNFB challenge, listed as Corticosterone) | skin DTH vs vehicle ([2]; corticosterone high dose 40 mg/kg, acute, ADX animals, DNFB challenge) | skin DTH vs vehicle ([2]; corticosterone high dose 40 mg/kg, acute, ADX animals, DNFB challenge, listed as Corticosterone) | immuno-enhancement of skin DTH compared with epinephrine ([3]; corticosterone 5 mg/kg vs epinephrine 500 μg/kg, OXA challenge 2 h after administration) | skin DTH vs vehicle [3] | lymphocyte numbers in cervical lymph nodes vs vehicle [4] | binding to corticosteroid binding globulin [5] | skin DTH vs vehicle ([2]; epinephrine 0.05, 0.25, 0.5 mg/kg, acute, ADX animals, DNFB challenge two hours after administration) | skin DTH vs vehicle ([2]; epinephrine 0.05, 0.25, 0.5 mg/kg, acute, ADX animals, DNFB challenge two hours after administration, listed as Epinephrine) | lymphocyte numbers in cervical lymph nodes vs vehicle ([4]; listed as Epinephrine) |
| --- | --- | --- | --- | --- | --- | --- | --- | --- | --- | --- | --- | --- | --- | --- | --- | --- |
| C[C@]12C[C@H](O)[C@H]3[C@@H](CCC4=CC(=O)CC[C@@]43C)[C@@H]1CC[C@@H]2C(=O)CO [corticosterone] | enhance the immune reaction observed during the challenge or recall phase of DTH | significantly suppressed skin DTH | lower DTH responses than control animals | significant enhancement of skin DTH | significantly larger DTH response than vehicle treated animals | significant enhancement of skin DTH; also recorded: enhanced the DTH response | significantly larger DTH response than vehicle treated animals | significantly suppressed skin DTH | lower DTH responses than control animals | greater than that induced by epinephrine | enhanced skin DTH; also recorded: enhanced DTH response | significantly larger numbers of lymphocytes in cervical lymph nodes; also recorded: higher lymphocyte numbers in cervical lymph nodes | binds a large proportion of circulating corticosterone | – | – | – |
| CNC[C@H](O)c1ccc(O)c(O)c1 [epinephrine, reference compound] | enhance the immune reaction observed during the challenge or recall phase of DTH | – | – | – | – | – | – | – | – | – | enhanced skin DTH; also recorded: enhanced DTH response | significantly larger numbers of lymphocytes in cervical lymph nodes | – | significant dose-dependent enhancement of skin DTH | dose dependent increase in skin DTH | higher lymphocyte numbers in cervical lymph nodes |

From patent US20030147899A1, “Endogenous hormone adjuvant and uses thereof” (priority 1999, published 2003)
